# Measurements reported in patent US7329677B2, “Imidazo(4,5-b)pyridine-derivatives as inducible no-synthase inhibitors” (Altana Pharma AG, priority 2003, dated 2008).
# Counter-ions that a name gives are not always drawn.
# Tests used:
# [1] = molecular target: T1, human inducible NO-synthase (Homo sapiens, UniProt P35228); test: Measurement of inducible NO-synthase activity ([3H]arginine conversion); assay type: biochemical; conditions: crude cytosolic fraction containing human inducible NO-synthase; 0.1 μM arginine; 45 to 60 min at 37° C.; read-out: Inhibition of iNOS activity [measured as −logIC50 (mol/l)] (converted)
# T1 construct: host or cells: crude cytosolic fraction
# Experimental: The assay is performed in 96-well microtiter F-plates (Greiner, Frickenhausen, FRG) in a total volume of 100 μl in the presence of 100 nM calmodulin, 226 μM CaCl2, 477 μM MgCl2, 5 μM flavin-adenine-dinucleotide (FAD), 5 μM flavin mononucleotide (FMN), 0.1 mM NADPH, 7 mM glutathione, 10 μM BH4 and 100 mM HEPES pH 7.2. Arginine concentrations are 0.1 μM for enzyme inhibition experiments. 150000 dpm of [^3H]arginine are added to the assay mixture. Enzyme reaction is started by the addition of 4 μg of a crude cytosolic fraction containing human inducible NO-synthase and the reaction mixture is incubated for 45 to 60 min at 37° C. Enzyme reaction is stopped by adding 10 μl of 2M MESbuffer pH 5,0. […] of the incubation mixture are transferred into a MADP N65 filtration microtiter plate (Millipore, Eschborn, FRG) containing already 50 μl of AG-50W-X8 cation exchange resin (Biorad, München, FRG). […] Scintillation plates are counted in a szintillation counter.
# For the measurement of inducible NO-synthaseinhibiting potencies of compounds increasing concentrations of inhibitors were included into the incubation mixture. IC50-values were calculated from the percent inhibition at given concentrations by nonlinear least square fitting.
IC50 [1],melting point,Compound
70.8 nM,,"COc1ccnc(CC(C)c2nc3cccnc3[nH]2)c1 (racemic) [Example 1, (R,S)-2-[3-(4-Methoxypyridin-2-yl)prop-2-yl]-3H-imidazo[4,5-b]pyridine hydrochloride]"
,61 to 64 °C,"COc1ccnc(CC(C)c2nc3cccnc3[nH]2)c1 (racemic) (as salt: hydrochloride) [Example 1, (R,S)-2-[3-(4-Methoxypyridin-2-yl)prop-2-yl]-3H-imidazo[4,5-b]pyridine hydrochloride]"
